Experimental data taken from patent publication US8466290B2, “STAT3 inhibitor containing quinolinecarboxamide derivative as active ingredient” (Pharma IP General Incorporated Association, priority 2008, dated 2013).

Tests used:
STAT3 = STAT3 transcription inhibition test (reporter gene method, oncostatin M stimulation); format: cell-based; conditions: Homo sapiens; compound at 100 μM; STAT3 reporter HeLa stable cell line; oncostatin M 10 ng/mL, 4 hours; read-out: STAT3 transcription inhibitory activity (%)
Procedure: The inhibition of STAT3 transcription was evaluated by using STAT3 reporter HeLa stable cell line (Panomics Inc., catalog No. RC0003), a cell line for the reporter gene method, and performing the following method according to the appendix included therein.
STAT3 reporter HeLa stable cell line subcultured and maintained in a Dulbecco's modified Eagle's medium (DMEM) containing 10% fetal bovine serum, 100 units/mL penicillin, and 100 μg/mL streptomycin was inoculated at a concentration of 40000 cells/well to a 96-well plate (white) and attached to the plate by overnight incubation at 37° C. under 5% CO2. After addition of each evaluation compound adjusted to various concentrations (adjusted with a DMSO solution), the cells were precultured for 1 hour. Then, oncostatin M for activating STAT3 was added at a final concentration 10 ng/mL, and the cells were further cultured at 37° C. under 5% CO2 for 4 hours. Luciferase activity derived from the cells was determined using Steady-Glo Luciferase Assay System (Promega Corp.), and STAT3 transcriptional activity scores were calculated according to the following formula: STAT3 transcriptional activity score (%)=100×(Lchem−L0)/(LDMSO−L0) Lo: luminescence intensity obtained without stimulation with oncostatin M Lchem: luminescence intensity obtained by the addition of a test sample LDMSO: luminescence intensity obtained by the addition of only a solvent for dissolving a test sample

MDA-MB-435S = MDA-MB-435S cell growth inhibitory activity; format: cell-based; conditions: Homo sapiens, compound at 20 μM, 72 hours, read-out: Cell growth inhibitory activity (%)
Procedure: […] Each well was washed three times with a medium. Then, after addition of 100 μL/well of a medium and 20 μL/well of CellTiter 96 AQueous One Solution Reagent (Promega Corp.), the cells were incubated at 37° C. for 2 hours in the presence of 5% CO2.

Cc1ccc(-c2cc(C(=O)Nc3nnc(-c4ccco4)o3)c3cccc(C)c3n2)cc1 [Ia-27, N-[5-(2-furyl)-1,3,4-oxadiazol-2-yl]-8-methyl-2-(4-tolyl)-4-quinolinecarboxamide]
inhibition at 100 µM (STAT3): 71%
inhibition at 20 µM (MDA-MB-435S): 99%

Cc1ccc2nc(-c3cccs3)cc(C(=O)Nc3nnc(-c4ccco4)o3)c2c1 [Ia-29, N-[5-(2-furyl)-1,3,4-oxadiazol-2-yl]-6-methyl-2-(2-thienyl)-4-quinolinecarboxamide]
inhibition at 100 µM (STAT3): 65%
inhibition at 20 µM (MDA-MB-435S): 98%

O=C(Nc1nnc(-c2ccco2)o1)c1cc(-c2cccs2)nc2ccc(Cl)cc12 [Ia-30, 6-chloro-N-[5-(2-furyl)-1,3,4-oxadiazol-2-yl]-2-(2-thienyl)-4-quinolinecarboxamide]
inhibition at 100 µM (STAT3): 62%
inhibition at 20 µM (MDA-MB-435S): > 100%

O=C(Nc1nnc(-c2ccco2)o1)c1cc(-c2ccccc2O)nc2ccccc12 [Ia-38, N-[5-(2-furyl)-1,3,4-oxadiazol-2-yl]-2-(2-hydroxyphenyl)-4-quinolinecarboxamide]
inhibition at 100 µM (STAT3): > 100%
inhibition at 20 µM (MDA-MB-435S): 50%

O=C(Nc1nnc(-c2ccco2)o1)c1cc(-c2cccc(Cl)c2)nc2ccccc12 [Ia-41, 2-(3-chlorophenyl)-N-[5-(2-furyl)-1,3,4-oxadiazol-2-yl]-4-quinolinecarboxamide]
inhibition at 100 µM (STAT3): > 100%
inhibition at 20 µM (MDA-MB-435S): 55%

COc1cccc(-c2cc(C(=O)Nc3nnc(-c4ccco4)o3)c3ccccc3n2)c1 [Ia-42, N-[5-(2-furyl)-1,3,4-oxadiazol-2-yl]-2-(3-methoxyphenyl)-4-quinolinecarboxamide]
inhibition at 100 µM (STAT3): 92%
inhibition at 20 µM (MDA-MB-435S): 92%

N#Cc1cccc(-c2cc(C(=O)Nc3nnc(-c4ccco4)o3)c3ccccc3n2)c1 [Ia-43, 2-(3-cyanophenyl)-N-[5-(2-furyl)-1,3,4-oxadiazol-2-yl]-4-quinolinecarboxamide]
inhibition at 100 µM (STAT3): 71%
inhibition at 20 µM (MDA-MB-435S): 72%

O=C(Nc1nnc(-c2ccco2)o1)c1cc(-c2ccc(F)cc2)nc2ccccc12 [Ia-46, 2-(4-fluorophenyl)-N-[5-(2-furyl)-1,3,4-oxadiazol-2-yl]-4-quinolinecarboxamide]
inhibition at 100 µM (STAT3): 80%
inhibition at 20 µM (MDA-MB-435S): 54%

Cc1ccc(-c2cc(C(=O)Nc3nnc(-c4ccco4)o3)c3ccccc3n2)cc1 [Ia-48, N-[5-(2-furyl)-1,3,4-oxadiazol-2-yl]-2-(4-methylphenyl)-4-quinolinecarboxamide]
inhibition at 100 µM (STAT3): 92%
inhibition at 20 µM (MDA-MB-435S): 69%

O=C(Nc1nnc(-c2ccco2)o1)c1cc(-c2ccc(OC(F)F)cc2)nc2ccccc12 [Ia-49, 2-(4-difluoromethoxyphenyl)-N-[5-(2-furyl)-1,3,4-oxadiazol-2-yl]-4-quinolinecarboxamide]
inhibition at 100 µM (STAT3): > 100%
inhibition at 20 µM (MDA-MB-435S): 51%

COc1ccc(-c2cc(C(=O)Nc3nnc(-c4ccco4)o3)c3ccccc3n2)cc1 [Ia-51, N-[5-(2-furyl)-1,3,4-oxadiazol-2-yl]-2-(4-methoxyphenyl)-4-quinolinecarboxamide]
inhibition at 100 µM (STAT3): > 100%
inhibition at 20 µM (MDA-MB-435S): 56%

COc1ccc(-c2cc(C(=O)Nc3nnc(-c4ccco4)o3)c3ccccc3n2)cc1OC [Ia-57, N-[5-(2-furyl)-1,3,4-oxadiazol-2-yl]-2-(3,4-dimethoxyphenyl)-4-quinolinecarboxamide]
inhibition at 100 µM (STAT3): > 100%
inhibition at 20 µM (MDA-MB-435S): 64%

O=C(Nc1nnc(-c2ccco2)o1)c1cc(-c2ccc3c(c2)OCO3)nc2ccccc12 [Ia-58, N-[5-(2-furyl)-1,3,4-oxadiazol-2-yl]-2-(3,4-methylenedioxyphenyl)-4-quinolinecarboxamide]
inhibition at 100 µM (STAT3): > 100%
inhibition at 20 µM (MDA-MB-435S): 58%

Cc1ccc(-c2cc(C(=O)Nc3nnc(-c4ccco4)o3)c3ccccc3n2)o1 [Ia-64, N-[5-(2-furyl)-1,3,4-oxadiazol-2-yl]-2-(5-methyl-2-furyl)-4-quinolinecarboxamide]
inhibition at 100 µM (STAT3): > 100%
inhibition at 20 µM (MDA-MB-435S): 57%

O=C(Nc1nnc(-c2ccco2)o1)c1cc(-c2ccccc2)nc2ccc(Br)cc12 [Ia-68, 6-bromo-N-[5-(2-furyl)-1,3,4-oxadiazol-2-yl]-2-phenyl-4-quinolinecarboxamide]
inhibition at 100 µM (STAT3): > 100%
inhibition at 20 µM (MDA-MB-435S): 63%

O=C(Nc1nnc(-c2ccco2)o1)c1cc(-c2ccccc2)nc2ccc(-c3ccccc3)cc12 [Ia-75, N-[5-(2-furyl)-1,3,4-oxadiazol-2-yl]-2,6-diphenyl-4-quinolinecarboxamide]
inhibition at 100 µM (STAT3): > 100%
inhibition at 20 µM (MDA-MB-435S): 64%

O=C(Nc1nnc(-c2ccco2)o1)c1cc(-c2ccccc2)nc2ccc(-c3ccncc3)cc12 [Ia-76, N-[5-(2-furyl)-1,3,4-oxadiazol-2-yl]-2-phenyl-6-(4-pyridyl)-4-quinolinecarboxamide]
inhibition at 100 µM (STAT3): > 100%
inhibition at 20 µM (MDA-MB-435S): 84%

O=C(Nc1nnc(Cc2ccccc2)o1)c1cc(-c2ccccc2)nc2ccccc12 [Ia-83, N-(5-benzyl-1,3,4-oxadiazol-2-yl)-2-phenyl-4-quinolinecarboxamide]
inhibition at 100 µM (STAT3): > 100%
inhibition at 20 µM (MDA-MB-435S): 90%

CCC(=O)Nc1ccc2nc(-c3ccccc3)cc(C(=O)Nc3nnc(-c4ccco4)o3)c2c1 [Ia-93, N-[5-(2-furyl)-1,3,4-oxadiazol-2-yl]-2-phenyl-6-propionylamino-4-quinolinecarboxamide]
inhibition at 100 µM (STAT3): 72%
inhibition at 20 µM (MDA-MB-435S): 67%

O=C(Nc1nnc(-c2ccco2)o1)c1cc(-c2ccccc2)nc2ccc(-c3ccc(O)cc3)cc12 [Ia-98, N-[5-(2-furyl)-1,3,4-oxadiazol-2-yl]-6-(4-hydroxyphenyl)-2-phenyl-4-quinolinecarboxamide]
inhibition at 100 µM (STAT3): > 100%
inhibition at 20 µM (MDA-MB-435S): 86%

O=C(Nc1nnc(-c2ccco2)o1)c1cc(-c2ccccc2)nc2ccc(-c3ccsc3)cc12 [Ia-99, N-[5-(2-furyl)-1,3,4-oxadiazol-2-yl]-6-(3-thienyl)-2-phenyl-4-quinolinecarboxamide]
inhibition at 100 µM (STAT3): 73%
inhibition at 20 µM (MDA-MB-435S): 93%

O=C(Nc1nnc(-c2ccco2)o1)c1cc(-c2ccccc2)nc2ccc(-c3cccnc3)cc12 [Ia-100, N-[5-(2-furyl)-1,3,4-oxadiazol-2-yl]-6-(3-pyridyl)-2-phenyl-4-quinolinecarboxamide]
inhibition at 100 µM (STAT3): 92%
inhibition at 20 µM (MDA-MB-435S): 76%

O=C(Nc1nnc(-c2ccccc2)o1)c1cc(-c2ccccc2)nc2ccc(Cl)cc12 [Ia-110, 6-chloro-2-phenyl-N-(5-phenyl-1,3,4-oxadiazol-2-yl)-4-quinolinecarboxamide]
inhibition at 100 µM (STAT3): 89%
inhibition at 20 µM (MDA-MB-435S): 65%

O=C(Nc1nnc(-c2ccccc2)o1)c1cc(-c2ccccc2)nc2ccc(OC(F)(F)F)cc12 [Ia-111, N-(5-phenyl-1,3,4-oxadiazol-2-yl)-2-phenyl-6-trifluoromethoxy-4-quinolinecarboxamide]
inhibition at 100 µM (STAT3): > 100%
inhibition at 20 µM (MDA-MB-435S): 87%

O=C(Nc1nnc(-c2ccccc2Cl)o1)c1cc(-c2ccccc2)nc2ccc(Cl)cc12 [Ia-112, 6-chloro-N-[5-(2-chlorophenyl)-1,3,4-oxadiazol-2-yl]-2-phenyl-4-quinolinecarboxamide]
inhibition at 100 µM (STAT3): > 100%
inhibition at 20 µM (MDA-MB-435S): 69%

O=C(Nc1nnc(-c2ccccc2Cl)o1)c1cc(-c2ccccc2)nc2ccc(OC(F)(F)F)cc12 [Ia-113, N-[5-(2-chlorophenyl)-1,3,4-oxadiazol-2-yl]-2-phenyl-6-trifluoromethoxy-4-quinolinecarboxamide]
inhibition at 100 µM (STAT3): > 100%
inhibition at 20 µM (MDA-MB-435S): 76%

COc1ccc(-c2nnc(NC(=O)c3cc(-c4ccccc4)nc4ccc(OC(F)(F)F)cc34)o2)cc1 [Ia-117, N-[5-(4-methoxyphenyl)-1,3,4-oxadiazol-2-yl]-2-phenyl-6-trifluoromethoxy-4-quinolinecarboxamide]
inhibition at 100 µM (STAT3): 87%
inhibition at 20 µM (MDA-MB-435S): 85%

O=C(Nc1nnc(-c2cccs2)o1)c1cc(-c2ccccc2)nc2ccccc12 [Ia-a, 2-phenyl-N-[5-(2-thienyl)-1,3,4-oxadiazol-2-yl]-4-quinolinecarboxamide]
inhibition at 100 µM (STAT3): 86%
inhibition at 20 µM (MDA-MB-435S): 89%

COc1ccccc1-c1nnc(NC(=O)c2cc(-c3ccccc3)nc3ccccc23)o1 [Ia-c, N-[5-(2-methoxyphenyl)-1,3,4-oxadiazol-2-yl]-2-phenyl-4-quinolinecarboxamide]
inhibition at 100 µM (STAT3): 67%
inhibition at 20 µM (MDA-MB-435S): 97%

O=C(Nc1nnc(Br)s1)c1cc(-c2ccccc2)nc2ccccc12 [Ib-2, N-(5-bromo-1,3,4-thiadiazol-2-yl)-2-phenyl-4-quinolinecarboxamide]
inhibition at 100 µM (STAT3): > 100%
inhibition at 20 µM (MDA-MB-435S): 79%

O=C(Nc1nnc(-c2ccncc2)s1)c1cc(-c2ccccc2)nc2ccc(OC(F)(F)F)cc12 [Ib-8, 2-phenyl-N-[5-(4-pyridyl)-1,3,4-thiadiazol-2-yl]-6-trifluoromethoxy-4-quinolinecarboxamide]
inhibition at 100 µM (STAT3): 65%
inhibition at 20 µM (MDA-MB-435S): 80%

CC(C)Oc1cccc(-c2cc(C(=O)Nc3nnc(-c4ccncc4)s3)c3ccccc3n2)c1 [Ib-b, 2-(3-isopropoxyphenyl)-N-[5-(4-pyridyl)-1,3,4-thiadiazol-2-yl]-4-quinolinecarboxamide]
inhibition at 100 µM (STAT3): > 100%
inhibition at 20 µM (MDA-MB-435S): 97%
